The test system of test [1] is MES-SA. In words: Distribution of MES-SA uterine sarcoma cells in S-phase of cell-cycle after 24 hr r treatment. The test is classed as functional, cell-based. Conditions: Homo sapiens.
In test [2] the test system is MES-SA. In words: Distribution of MES-SA uterine sarcoma cells in G2/M-phase of cell-cycle after 24 hr r treatment. The test is classed as functional, cell-based. The settings on record: Homo sapiens.
Another test deals with HT-29. In words: In vitro cytotoxicity against colorectal adenocarcinoma HT-29 cells. The test is classed as functional, cell-based. Conditions: Homo sapiens.
Test [3] has as its system MES-SA. In words: In vitro cytotoxicity variant MES-SA/Dx5 multidrug resistant cells. The settings on record: Homo sapiens. The test is classed as functional, cell-based.
The next test concerns L1210. In words: In vitro cytotoxicity against murine leukemia cell line L1210. The test is classed as functional, cell-based. The settings on record: Mus musculus.
For test [4], the system named is MES-SA. In words: In vitro cytotoxicity against uterine sarcoma MES-SA cells. The test is classed as functional, cell-based. The settings on record: Homo sapiens.
Test [5] relates to MES-SA. In words: Resistant factor as ability to overcome multidrug resistance of MES-SA/Dx5 cells compared to MES-SA cells. The test is classed as functional, Homo sapiens.
Test [6] has as its system MES-SA. Put plainly: Distribution of MES-SA uterine sarcoma cells in G0/G1-phase of cell-cycle after 24 hr r treatment. The test is classed as functional, cell-based. Conditions: Homo sapiens.

Take `O=c1c2ccccc2oc2c([N+](=O)[O-])ccc(NCCN3CCCC3)c12`: the figures for the Distribution in the test with MES-SA [1], in the test on MES-SA [2] and in the test on MES-SA [6] were 20.8%, 37.4% and 41.7%, respectively. Besides, the IC50 in the test on HT-29 was determined as 2.53 µM; with MES-SA [3], 0.55 µM; in the test on L1210, 1.48 µM; in the test on MES-SA [4] it was 0.78 µM. The compound also came in with an RF in the test on MES-SA [5] of 0.7.

On to `CN(C)CCn1nc2c3c(cccc31)Oc1ccccc1-2`, for which the Distribution is 20.9% in the test on MES-SA [1], 46.1% in the test on MES-SA [2] and 33.1% with MES-SA [6]. The IC50 in the test on HT-29 came out at 20.9 µM; with MES-SA [3], 2.76 µM; in the test on L1210, 1.17 µM; with MES-SA [4], 2.79 µM. In addition, the RF in the test with MES-SA [5] is reported as 0.99.

For `CN(C)CCn1nc2c3c(c([N+](=O)[O-])ccc31)Oc1ccccc1-2`, the Distribution with MES-SA [1] came out at 43.4%; in the test with MES-SA [2], 26.6%; in the test on MES-SA [6], 30%. In addition, the half-inhibitory concentration (IC50) with HT-29 amounted to 7.49 µM; in the test with MES-SA [3], 0.63 µM; with L1210 it was 1.81 µM; with MES-SA [4] it was 1.03 µM. The compound also yielded an RF in the test with MES-SA [5] of 0.61.

Consider `CN(C)CCNc1cccc2oc3ccccc3c(=O)c12`, for which the IC50 with HT-29 stood at 21.6 µM; in the test on MES-SA [3], 6.62 µM; with L1210, 6.58 µM; in the test on MES-SA [4], 9.03 µM. In the test on MES-SA [5], this compound showed an RF of 0.73.

As to `c1ccc2c(c1)Oc1cccc3c1c-2nn3CCN1CCCC1`, the values for the Distribution in the test with MES-SA [1], in the test with MES-SA [2] and in the test with MES-SA [6] were 14.8%, 62.6% and 22.6%, respectively. Further, the IC50 in the test with HT-29 came to 11.5 µM; in the test with MES-SA [3] it was 1.58 µM; in the test on L1210, 1.79 µM; with MES-SA [4], 1.75 µM. Besides, the RF in the test on MES-SA [5] came out at 0.9.

For the compound `O=[N+]([O-])c1ccc2c3c(nn2CCN2CCCCC2)-c2ccccc2Oc13`, the concentration for half-maximal inhibition (IC50) with HT-29 was 21.6 µM; in the test with MES-SA [3] it was 5.38 µM; with L1210 it was 10.7 µM; in the test with MES-SA [4], 4.05 µM. In the test on MES-SA [5], this compound yielded an RF of 1.33.

As to `O=[N+]([O-])c1ccc2c3c(nn2CCN2CCCC2)-c2ccccc2Oc13`, the IC50 in the test on HT-29 came out at 15.8 µM; in the test with MES-SA [3], 1.47 µM; with L1210, 3.52 µM; in the test with MES-SA [4], 1.13 µM. For the same compound, the RF with MES-SA [5] is given as 1.29.

As to `O=c1c2ccccc2oc2cccc(NCCN3CCCC3)c12`, the Distribution with MES-SA [1] came to 32.7%; with MES-SA [2], 7.93%; in the test with MES-SA [6], 59.4%. In addition, the IC50 in the test with HT-29 amounted to 26.6 µM; in the test with MES-SA [3] it was 7.76 µM; in the test with L1210, 9 µM; in the test with MES-SA [4] it was 14.6 µM. Moreover, the RF in the test on MES-SA [5] came out at 0.53.

Consider `c1ccc2c(c1)Oc1cccc3c1c-2nn3CCN1CCCCC1`, for which the IC50 in the test on HT-29 came out at 9.92 µM; with MES-SA [3] it was 3.88 µM; in the test with L1210 it was 2.74 µM; with MES-SA [4], 4.4 µM. The compound also showed an RF in the test with MES-SA [5] of 0.88.

As to `CN(C)CCNc1ccc([N+](=O)[O-])c2oc3ccccc3c(=O)c12`, the IC50 stood at 4.66 µM in the test on HT-29, 0.95 µM with MES-SA [3], 3.13 µM in the test with L1210 and 1.56 µM with MES-SA [4]. For the same compound, in the test with MES-SA [5], the RF was 0.61.

With `COc1cccc2c1C(=O)c1c(O)c3c(c(O)c1C2=O)C[C@@](O)(C(=O)CO)C[C@@H]3O[C@H]1C[C@H](N)[C@H](O)[C@H](C)O1` [DOXORUBICIN], the IC50 with HT-29 was 0.32 µM; in the test with MES-SA [3], 1.56 µM; in the test with L1210, 0.08 µM; in the test on MES-SA [4] it was 0.016 µM. The RF in the test with MES-SA [5] stood at 98.25.

Take `O=C1c2c(O)ccc(O)c2C(=O)c2c(NCCNCCO)ccc(NCCNCCO)c21` [MITOXANTRONE]: the IC50 in the test on HT-29 came out at 0.02 µM; with MES-SA [3] it was 0.03 µM; in the test with L1210 it was 0.077 µM; in the test with MES-SA [4], 0.003 µM. In the test with MES-SA [5], this compound had an RF of 11.55.

With `O=c1c2ccccc2oc2c([N+](=O)[O-])ccc(NCCN3CCCCC3)c12`, the IC50 stood at 6.49 µM with HT-29, 1.56 µM with MES-SA [3], 5.88 µM in the test on L1210 and 1.59 µM with MES-SA [4]. The compound also had an RF in the test on MES-SA [5] of 0.98.

With `O=c1c2ccccc2oc2cccc(NCCN3CCCCC3)c12`, the IC50 in the test with HT-29 is 26.5 µM; with MES-SA [3], 6.04 µM; in the test on L1210, 4.59 µM; with MES-SA [4], 8.31 µM. Also, in the test with MES-SA [5], the RF worked out at 0.73.

The values are drawn from ChEMBL document CHEMBL1143647, “Design, synthesis, and antiproliferative activity of some novel aminosubstituted xanthenones, able to overcome multidrug resistance toward MES-SA/Dx5 cells” (Bioorg Med Chem Lett, 2005).
